Experimental data reported in article PMC4392110, “Atom-Atom-Path similarity and Sphere Exclusion clustering: tools for prioritizing fragment hits” (Journal of Cheminformatics, 2015).

Biological target: MAP4K4 kinase (Homo sapiens, UniProt O95819)
Experiment: MAP4K4 fragment screen, KD of fragment hits
Assay type: binding
Conditions: for Ligand Efficiency: LE computed as 1.4*pKd/nHeavyAtoms; for Kd: fragment screening hits, read-out: MAP4K4 inact KD; for LE difference to the cluster seed: difference in LE to cluster seed (C02M01 or C12M01)
Source text: Utilizing additional fragment collections, we expanded our previous ~2,500 compound screen of the MAP4K4 kinase by performing an additional screen of 8,000 compounds [28]. […] AAP similarity and DISE clustering were used to cluster the combined hit set fragments. The fragment hits were sorted according to their LE, followed by the cluster seed selection. The AAP similarity threshold in this step was 0.3. The remaining hits were assigned to the most similar cluster seed.

Chain of MAP4K4 kinase (O95819 whole entry, the tested form may be a part): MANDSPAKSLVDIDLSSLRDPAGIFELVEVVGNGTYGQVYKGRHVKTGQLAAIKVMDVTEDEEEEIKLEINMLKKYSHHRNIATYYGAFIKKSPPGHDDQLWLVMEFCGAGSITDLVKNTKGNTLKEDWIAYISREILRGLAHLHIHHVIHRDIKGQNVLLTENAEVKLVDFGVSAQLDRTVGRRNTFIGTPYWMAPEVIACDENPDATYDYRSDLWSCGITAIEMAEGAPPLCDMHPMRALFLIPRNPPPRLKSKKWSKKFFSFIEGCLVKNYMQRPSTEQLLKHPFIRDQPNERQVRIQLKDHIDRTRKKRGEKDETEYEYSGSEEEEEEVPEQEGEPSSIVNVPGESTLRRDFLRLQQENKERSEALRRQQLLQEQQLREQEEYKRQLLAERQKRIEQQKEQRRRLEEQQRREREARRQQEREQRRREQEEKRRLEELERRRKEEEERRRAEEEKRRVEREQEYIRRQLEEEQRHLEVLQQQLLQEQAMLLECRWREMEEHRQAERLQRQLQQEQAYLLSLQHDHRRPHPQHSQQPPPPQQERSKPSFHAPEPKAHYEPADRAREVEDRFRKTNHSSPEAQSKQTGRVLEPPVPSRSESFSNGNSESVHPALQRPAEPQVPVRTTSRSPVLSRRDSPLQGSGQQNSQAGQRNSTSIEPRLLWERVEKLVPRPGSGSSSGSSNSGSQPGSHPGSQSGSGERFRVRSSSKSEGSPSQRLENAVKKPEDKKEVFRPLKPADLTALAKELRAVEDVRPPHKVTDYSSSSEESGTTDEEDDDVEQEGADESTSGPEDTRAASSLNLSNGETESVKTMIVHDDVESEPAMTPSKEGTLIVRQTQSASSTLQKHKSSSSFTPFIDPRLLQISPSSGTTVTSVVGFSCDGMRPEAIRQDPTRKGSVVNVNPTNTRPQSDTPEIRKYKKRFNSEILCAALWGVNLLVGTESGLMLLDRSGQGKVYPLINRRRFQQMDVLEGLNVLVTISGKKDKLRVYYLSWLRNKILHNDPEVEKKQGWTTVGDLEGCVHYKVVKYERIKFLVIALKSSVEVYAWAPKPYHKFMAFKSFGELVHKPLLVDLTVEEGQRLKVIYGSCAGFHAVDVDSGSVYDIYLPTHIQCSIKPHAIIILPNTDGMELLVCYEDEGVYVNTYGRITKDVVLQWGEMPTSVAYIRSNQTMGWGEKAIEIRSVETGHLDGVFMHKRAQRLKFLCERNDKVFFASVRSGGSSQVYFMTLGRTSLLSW

| Compound | Ligand Efficiency | Kd [µM] | LE difference to the cluster seed |
| --- | --- | --- | --- |
| c1ccc(-c2n[nH]c3ccccc23)cc1 [C12M01] | 0.5 | 3.4 |  |
| Nc1ncncc1-c1ccccc1 [C02M02] |  | 28 | 0.13 |
| Nc1ncncc1-c1ccc(Cl)cc1 [C02M03] |  | 35.5 | 0.17 |
| Nc1ncnc(Cl)c1-c1ccccc1 [C02M04] |  | 367 |  |
| CCc1nc(N)nc(N)c1-c1ccc(Cl)cc1 [C02M06] |  | 930 |  |
| Nc1ccc2[nH]nc(-c3ccccc3)c2c1 [C12M03] | 0.41 | 16.8 | 0.09 |
| Nc1c(-c2ccccc2)nn2ccccc12 [C12M05] | 0.31 | 276 |  |
| OCc1ccc(-c2cncnc2)cc1 [C02M05] |  | 505 |  |
| Nc1n[nH]c2cc(-c3ccccc3)ccc12 [C12M02] | 0.49 | 2.1 |  |
| Nc1ncncc1-c1ccc(O)cc1 [C02M01] |  | 0.55 |  |
